# Assay results as given in ChEMBL document CHEMBL1614632, “Trend analysis of a database of intravenous pharmacokinetic parameters in humans for 670 drug compounds” (Drug Metab Dispos, 2008).
# Numbered stars: 1 amine (or outer) side, 2 acyl side, 3 side chain; on linkers, the order of the positions; unused ones are H or OH. Bridge positions count the residues as written; N and C are the ends. Square brackets hold non-standard residues; d marks the D form. Peptide text beside a SMILES is read from it. * marks the point of attachment. hTyr(3S-OH,4S-OH,3'-OSO3H) = N[C@H](C(=O)O)[C@H](O)[C@@H](O)c1ccc(O)c(OS(=O)(=O)O)c1; Orn(4R-OH,5R-OH) = O=C([C@H](C[C@@H](O)[C@@H](O)N[*:3])N[*:1])[*:2]; Pro(3S-OH,4S-Me) = C[C@H]1CN[C@H](C(=O)O)[C@H]1O; X1 = CCCCCOc1ccc(-c2cc(-c3ccc(C(=O)*)cc3)no2)cc1; Gln(3R-OH) = NC(=O)C[C@@H](O)[C@H](N)C(=O)O; Hyp = O=C(O)[C@@H]1C[C@@H](O)CN1
# How the values were obtained:
# clinical [1] = details: human, in vivo, iv, Vdss
# clinical [2] = details: human, in vivo, iv, CL
# clinical [3] = details: human, in vivo, iv
# clinical [4] = details: human, in vivo, iv; remark: listed apart in the source
# clinical [5] = details: human, in vivo, iv, t1/2
Compound,Vd (clinical [1]) [L/kg],clearance (clinical [2]) [mL/min/kg],fraction unbound (clinical [3]),MRT (clinical [4]) [h],half-life (clinical [5]) [h]
CN[C@H]1C(=O)N[C@@H]2Cc3ccc(cc3)Oc3cc4cc(c3O[C@@H]3O[C@H](C(=O)O)[C@@H](O)[C@H](O)[C@H]3NC(=O)CCCCCCCCC(C)C)Oc3ccc(cc3Cl)[C@@H](O)[C@@H]3NC(=O)[C@H](NC(=O)[C@@H]4NC(=O)[C@@H](NC2=O)c2cc(cc(O)c2Cl)Oc2cc1ccc2O)c1ccc(O)c(c1)-c1c(O[C@H]2O[C@H](CO)[C@@H](O)[C@H](O)[C@@H]2O)cc(O)cc1[C@@H](C(=O)NCCCN(C)C)NC3=O [DALBAVANCIN],0.14,0.01,0.02,230,170
CO[C@@]1(NC(=O)C(C(=O)O)c2ccc(O)cc2)C(=O)N2C(C(=O)O)=C(CSc3nnnn3C)CO[C@@H]21 (stereo not given in full) [MOXALACTAM],0.17,0.72,0.39,3.9,2.9
"CCCCCOc1ccc(-c2cc(-c3ccc(C(=O)N[C@H]4C[C@@H](O)[C@@H](O)NC(=O)[C@@H]5[C@@H](O)[C@@H](C)CN5C(=O)[C@H]([C@H](O)CC(N)=O)NC(=O)[C@H]([C@H](O)[C@@H](O)c5ccc(O)c(OS(=O)(=O)O)c5)NC(=O)[C@@H]5C[C@@H](O)CN5C(=O)[C@H]([C@@H](C)O)NC4=O)cc3)no2)cc1 [MICAFUNGIN] (X1-[Orn(4R-OH,5R-OH)]T[Hyp][hTyr(3S-OH,4S-OH,3'-OSO3H)][Gln(3R-OH)][Pro(3S-OH,4S-Me)]; lactam 1-C)",0.21,0.17,0.0023,21,16
CCOC(=O)[C@@H]1C2CCC(C[C@@H]1OC(=O)c1ccccc1)N2C (stereo not given in full) [COCAETHYLENE],1.6,13,0.64,2,1.5
CCC(=O)OCC(=O)[C@@]1(OC(=O)CC)[C@@H](C)C[C@H]2[C@@H]3CCC4=CC(=O)C=C[C@]4(C)[C@@]3(Cl)[C@@H](O)C[C@@]21C [BECLOMETHASONE DIPROPIONATE],0.29,36,0.13,0.1,0.5
CN[C@@H]1[C@@H](O)[C@@H](O[C@@H]2[C@@H](O)[C@H](O[C@H]3OC(CN)=CC[C@H]3N)[C@@H](N)C[C@H]2N)OC[C@]1(C)O [SISOMICIN],0.19,1,0.15,3.2,2.4
CCCN1CCCC[C@H]1C(=O)Nc1c(C)cccc1C [ROPIVACAINE],0.75,5.5,0.06,2.3,2.2
C=CC[N+]1([C@H]2C[C@H]3[C@@H]4CC[C@H]5C[C@H](O)[C@@H](N6CCOCC6)C[C@]5(C)[C@H]4CC[C@]3(C)[C@H]2OC(C)=O)CCCC1 [ROCURONIUM],0.21,3.7,0.54,0.95,1.6
Cc1cccc([C@H](C)c2cnc[nH]2)c1C [DEXMEDETOMIDINE],1.6,11,0.06,2.5,2.2
Cc1cccc(C)c1NC(=O)C1CCCCN1C (stereo not given) [MEPIVACAINE],0.95,6.8,0.3,2.5,2
CN(C)c1cc(NC(=O)CNC(C)(C)C)c(O)c2c1C[C@H]1C[C@H]3[C@H](N(C)C)C(O)=C(C(N)=O)C(=O)[C@@]3(O)C(O)=C1C2=O [TIGECYCLINE],12,3.8,0.2,53,48
C#C[C@]1(O)CC[C@H]2[C@@H]3CCc4cc(OS(=O)(=O)O)ccc4[C@H]3CC[C@@]21C,2.3,4.7,0.011,8.2,8.4
O=NN(CCCl)C(=O)NCCCl [CARMUSTINE],1.2,78,0.23,0.26,0.37
O=C1C(O)=C([C@H]2CC[C@H](c3ccc(Cl)cc3)CC2)C(=O)c2ccccc21 [ATOVAQUONE],0.6,0.15,0.001,67,63
COC(=O)C1=C(C)NC(C)=C(C(=O)OC(C)C)C1c1cccc2nonc12 (stereo not given) [ISRADIPINE],1.5,26,0.04,1,3.3
CC1(C)S[C@@H]2[C@H](NC(=O)[C@H](NC(=O)N3CCN(S(C)(=O)=O)C3=O)c3ccccc3)C(=O)N2[C@H]1C(=O)O [MEZLOCILLIN],0.09,2.1,0.7,0.71,1.2
CCC(=O)O[C@]1(C(=O)SCF)[C@H](C)C[C@H]2[C@@H]3C[C@H](F)C4=CC(=O)C=C[C@]4(C)[C@@]3(F)[C@@H](O)C[C@@]21C [FLUTICASONE PROPIONATE],3.6,17,0.1,3.9,6
CCC1(c2cccc(O)c2)CCCCN(C)C1 (stereo not given) [MEPTAZINOL],3.3,28,0.73,2,1.7
CO/N=C(\C(=O)N[C@@H]1C(=O)N2C(C(=O)O)=C(CSc3nc(=O)c(=O)[nH]n3C)CS[C@H]12)c1csc(N)n1 [CEFTRIAXONE],0.085,0.26,0.052,5.4,8.6
COCC(=O)O[C@]1(CCN(C)CCCc2nc3ccccc3[nH]2)CCc2cc(F)ccc2[C@@H]1C(C)C [MIBEFRADIL],3.1,4,0.005,13,13
CCCCCCCCCC(=O)N[C@@H](Cc1c[nH]c2ccccc12)C(=O)N[C@H](CC(N)=O)C(=O)N[C@@H](CC(=O)O)C(=O)N[C@@H]1C(=O)NCC(=O)N[C@@H](CCCN)C(=O)N[C@@H](CC(=O)O)C(=O)N[C@H](C)C(=O)N[C@@H](CC(=O)O)C(=O)NCC(=O)N[C@H](CO)C(=O)N[C@@H]([C@H](C)CC(=O)O)C(=O)N[C@@H](CC(=O)c2ccccc2N)C(=O)O[C@@H]1C,0.088,0.16,0.083,9.2,8.1
CC1(C)S[C@@H]2[C@H](NC(=O)[C@H](C(=O)O)c3ccsc3)C(=O)N2[C@H]1C(=O)O [TICARCILLIN],0.16,1.8,0.55,1.5,1
CCCCC1=NC2(CCCC2)C(=O)N1Cc1ccc(-c2ccccc2-c2nnn[nH]2)cc1 [IRBESARTAN],0.94,2.3,0.1,6.8,14
C[C@@H](O)[C@H]1C(=O)N2C(C(=O)O)=C(S[C@H]3C[C@@H](C(=O)N4CC[C@H](NC(=O)CNC(=N)N)C4)N(C)C3)[C@H](C)[C@H]12 [TOMOPENEM],0.23,1.9,0.91,2,1.7
COc1ccc(Cl)cc1[C@]1(F)C(=O)Nc2cc(C(F)(F)F)ccc21 [FLINDOKALNER],10,15,0.0038,11,37
